Test results as given in ChEMBL document CHEMBL5442175, “EUbOPEN Chemogenomics Library - PDSP Secondary Binding” (2024).
Where a name gives a salt, the structure may show the parent alone.

Key:
[1] = biological target: Sodium-dependent serotonin transporter (Homo sapiens, UniProt P31645); assay: (§1) PDSP Secondary Binding target: SLC6A4 - Compounds are tested at 10 uM concentration, plate are incubated at room temperature in the dark for 90 minutes. Reaction are stopped by vacuum filtration onto 0.3% polyethyleneimine soaked filter mats using Filtermate harvester. Scintillation cocktail is then melted onto microwave-dried filters on a hot plate and the radio activity is counted in Microbia counter.
[2] = biological target: Sodium-dependent noradrenaline transporter (Homo sapiens, UniProt P23975); assay: as §1, with “SLC6A2” for “SLC6A4”
Translocator protein = Translocator protein (Homo sapiens, UniProt P30536); assay: as §1, with “TSPO” for “SLC6A4”
D(3) dopamine receptor = D(3) dopamine receptor (Homo sapiens, UniProt P35462); assay: as §1, with “DRD3” for “SLC6A4”
[3] = biological target: T1, Alpha-1D adrenergic receptor (Homo sapiens, UniProt P25100); assay: as §1, with “ADRA1D” for “SLC6A4”
T1 sequence (P25100 whole entry): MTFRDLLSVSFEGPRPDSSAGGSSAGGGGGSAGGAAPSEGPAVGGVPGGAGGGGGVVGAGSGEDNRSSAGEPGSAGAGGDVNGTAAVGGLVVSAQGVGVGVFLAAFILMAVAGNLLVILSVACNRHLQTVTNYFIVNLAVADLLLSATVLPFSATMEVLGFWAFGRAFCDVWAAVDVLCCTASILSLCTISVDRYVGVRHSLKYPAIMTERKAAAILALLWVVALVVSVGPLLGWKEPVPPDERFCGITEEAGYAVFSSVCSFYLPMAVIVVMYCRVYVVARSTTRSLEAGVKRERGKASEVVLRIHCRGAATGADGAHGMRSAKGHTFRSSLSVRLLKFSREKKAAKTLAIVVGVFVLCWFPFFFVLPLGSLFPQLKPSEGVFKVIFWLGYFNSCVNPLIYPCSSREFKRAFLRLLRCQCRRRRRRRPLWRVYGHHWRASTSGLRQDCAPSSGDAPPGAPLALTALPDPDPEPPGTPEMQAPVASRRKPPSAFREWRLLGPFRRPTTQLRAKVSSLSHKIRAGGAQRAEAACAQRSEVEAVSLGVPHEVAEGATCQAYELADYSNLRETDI

[4] = biological target: Sigma non-opioid intracellular receptor 1 (Homo sapiens, UniProt Q99720); assay: as §1, with “SIGMAR1” for “SLC6A4”
[5] = biological target: 5-hydroxytryptamine receptor 6 (Homo sapiens, UniProt P50406); assay: as §1, with “HTR6” for “SLC6A4”
[6] = biological target: Sigma intracellular receptor 2 (Homo sapiens, UniProt Q5BJF2); assay: as §1, with “TMEM97” for “SLC6A4”
[7] = biological target: 5-hydroxytryptamine receptor 7 (Homo sapiens, UniProt P34969); assay: as §1, with “HTR7” for “SLC6A4”
[8] = biological target: T2, Alpha-1B adrenergic receptor (Homo sapiens, UniProt P35368); assay: as §1, with “ADRA1B” for “SLC6A4”
T2 sequence (P35368 whole entry): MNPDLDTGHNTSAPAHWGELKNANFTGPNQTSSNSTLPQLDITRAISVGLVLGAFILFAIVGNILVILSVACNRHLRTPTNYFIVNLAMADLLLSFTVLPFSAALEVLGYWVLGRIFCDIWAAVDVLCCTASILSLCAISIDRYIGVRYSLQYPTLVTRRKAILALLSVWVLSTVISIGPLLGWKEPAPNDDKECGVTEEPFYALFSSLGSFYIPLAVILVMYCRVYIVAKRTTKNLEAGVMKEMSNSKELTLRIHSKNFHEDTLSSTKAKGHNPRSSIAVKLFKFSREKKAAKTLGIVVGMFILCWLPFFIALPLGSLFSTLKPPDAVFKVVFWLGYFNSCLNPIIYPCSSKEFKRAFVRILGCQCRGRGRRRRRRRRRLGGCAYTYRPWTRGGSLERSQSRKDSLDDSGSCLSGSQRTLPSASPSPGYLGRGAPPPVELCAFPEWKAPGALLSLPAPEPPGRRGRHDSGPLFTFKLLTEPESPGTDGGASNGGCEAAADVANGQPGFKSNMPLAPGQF

[9] = biological target: 5-hydroxytryptamine receptor 1B (Homo sapiens, UniProt P28222); assay: as §1, with “HTR1B” for “SLC6A4”
[10] = biological target: T3, 5-hydroxytryptamine receptor 2C (Homo sapiens, UniProt P28335); assay: as §1, with “HTR2C” for “SLC6A4”
T3 sequence (P28335 whole entry): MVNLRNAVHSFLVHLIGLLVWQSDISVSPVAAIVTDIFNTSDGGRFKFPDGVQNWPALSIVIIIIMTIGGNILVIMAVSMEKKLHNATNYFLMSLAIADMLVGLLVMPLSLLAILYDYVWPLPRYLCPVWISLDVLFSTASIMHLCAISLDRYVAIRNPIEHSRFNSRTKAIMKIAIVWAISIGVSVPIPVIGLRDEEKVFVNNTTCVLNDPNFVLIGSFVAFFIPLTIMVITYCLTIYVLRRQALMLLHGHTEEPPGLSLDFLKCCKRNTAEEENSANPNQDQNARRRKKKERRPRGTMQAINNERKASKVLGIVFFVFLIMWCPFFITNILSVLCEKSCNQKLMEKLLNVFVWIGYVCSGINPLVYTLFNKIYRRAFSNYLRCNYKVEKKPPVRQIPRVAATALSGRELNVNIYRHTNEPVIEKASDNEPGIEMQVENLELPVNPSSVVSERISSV

D(4) dopamine receptor = biological target: T4, D(4) dopamine receptor (Homo sapiens, UniProt P21917); assay: as §1, with “DRD4” for “SLC6A4”
T4 sequence (P21917 whole entry): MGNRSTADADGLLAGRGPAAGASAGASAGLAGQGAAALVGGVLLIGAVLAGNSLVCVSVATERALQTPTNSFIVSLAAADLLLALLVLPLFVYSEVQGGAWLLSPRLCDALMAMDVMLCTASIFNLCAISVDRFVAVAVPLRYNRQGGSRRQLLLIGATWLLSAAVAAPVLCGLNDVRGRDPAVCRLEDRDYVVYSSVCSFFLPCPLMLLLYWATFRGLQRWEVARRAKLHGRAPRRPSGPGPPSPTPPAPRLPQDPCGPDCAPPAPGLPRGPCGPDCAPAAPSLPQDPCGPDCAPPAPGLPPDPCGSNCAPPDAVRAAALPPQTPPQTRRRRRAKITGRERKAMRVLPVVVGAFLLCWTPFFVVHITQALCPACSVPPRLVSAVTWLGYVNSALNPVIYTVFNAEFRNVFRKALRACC

[11] = biological target: T5, Alpha-2A adrenergic receptor (Homo sapiens, UniProt P08913); assay: as §1, with “ADRA2A” for “SLC6A4”
T5 sequence (P08913 whole entry): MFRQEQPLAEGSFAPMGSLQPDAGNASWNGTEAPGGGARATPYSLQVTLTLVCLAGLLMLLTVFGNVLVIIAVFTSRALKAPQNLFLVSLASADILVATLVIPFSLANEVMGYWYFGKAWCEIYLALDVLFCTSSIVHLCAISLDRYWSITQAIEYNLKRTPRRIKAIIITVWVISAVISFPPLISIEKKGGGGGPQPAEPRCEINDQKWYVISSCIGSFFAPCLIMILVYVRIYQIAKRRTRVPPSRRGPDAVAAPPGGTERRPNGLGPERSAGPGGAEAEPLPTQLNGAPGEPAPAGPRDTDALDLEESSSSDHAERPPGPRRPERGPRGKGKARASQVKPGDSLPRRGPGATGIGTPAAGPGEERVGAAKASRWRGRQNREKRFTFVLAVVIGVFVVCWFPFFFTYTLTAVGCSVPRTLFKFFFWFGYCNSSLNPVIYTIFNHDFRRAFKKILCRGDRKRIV

[12] = biological target: T6, Alpha-2B adrenergic receptor (Homo sapiens, UniProt P18089); assay: as §1, with “ADRA2B” for “SLC6A4”
T6 sequence (P18089 whole entry): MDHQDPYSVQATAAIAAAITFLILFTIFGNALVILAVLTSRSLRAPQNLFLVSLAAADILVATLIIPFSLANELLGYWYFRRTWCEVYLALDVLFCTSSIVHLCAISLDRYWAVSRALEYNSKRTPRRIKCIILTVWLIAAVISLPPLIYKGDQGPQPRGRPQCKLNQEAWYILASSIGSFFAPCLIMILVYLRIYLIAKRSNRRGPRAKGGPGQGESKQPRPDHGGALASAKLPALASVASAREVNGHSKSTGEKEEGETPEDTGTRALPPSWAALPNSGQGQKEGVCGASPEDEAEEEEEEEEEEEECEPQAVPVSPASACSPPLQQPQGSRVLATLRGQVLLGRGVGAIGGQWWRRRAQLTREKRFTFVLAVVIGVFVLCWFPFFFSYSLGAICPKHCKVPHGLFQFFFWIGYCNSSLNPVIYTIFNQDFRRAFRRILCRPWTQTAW

[13] = biological target: 5-hydroxytryptamine receptor 1D (Homo sapiens, UniProt P28221); assay: as §1, with “HTR1D” for “SLC6A4”
[14] = biological target: Kappa-type opioid receptor (Homo sapiens, UniProt P41145); assay: as §1, with “OPRK1” for “SLC6A4”
[15] = biological target: 5-hydroxytryptamine receptor 5A (Homo sapiens, UniProt P47898); assay: as §1, with “HTR5A” for “SLC6A4”
Mu-type opioid receptor = Mu-type opioid receptor (Homo sapiens, UniProt P35372); assay: as §1, with “OPRM1” for “SLC6A4”
Histamine H1 receptor = Histamine H1 receptor (Homo sapiens, UniProt P35367); assay: as §1, with “HRH1” for “SLC6A4”

Sequence of Sodium-dependent noradrenaline transporter (P23975 whole entry): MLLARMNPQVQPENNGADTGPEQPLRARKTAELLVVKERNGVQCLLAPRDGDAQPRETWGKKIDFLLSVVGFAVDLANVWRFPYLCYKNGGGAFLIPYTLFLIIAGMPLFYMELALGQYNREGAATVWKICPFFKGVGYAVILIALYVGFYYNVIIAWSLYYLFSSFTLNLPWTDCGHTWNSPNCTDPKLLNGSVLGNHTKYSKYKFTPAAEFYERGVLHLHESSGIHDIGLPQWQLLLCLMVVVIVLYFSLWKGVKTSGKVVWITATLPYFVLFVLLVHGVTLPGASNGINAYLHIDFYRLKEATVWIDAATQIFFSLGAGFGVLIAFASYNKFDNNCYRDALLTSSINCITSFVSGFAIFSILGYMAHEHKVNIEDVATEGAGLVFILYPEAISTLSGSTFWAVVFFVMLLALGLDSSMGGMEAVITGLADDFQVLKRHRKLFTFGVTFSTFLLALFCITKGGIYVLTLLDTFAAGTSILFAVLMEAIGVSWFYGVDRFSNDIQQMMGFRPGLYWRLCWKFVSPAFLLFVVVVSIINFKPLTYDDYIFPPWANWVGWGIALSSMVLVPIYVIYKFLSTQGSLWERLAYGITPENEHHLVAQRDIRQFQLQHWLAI
Sequence of Sigma intracellular receptor 2 (Q5BJF2 whole entry): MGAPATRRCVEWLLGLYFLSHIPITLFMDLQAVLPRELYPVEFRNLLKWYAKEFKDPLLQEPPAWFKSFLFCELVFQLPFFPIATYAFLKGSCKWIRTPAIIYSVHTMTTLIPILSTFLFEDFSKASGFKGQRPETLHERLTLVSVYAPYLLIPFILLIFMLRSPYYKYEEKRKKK
Sequence of Sodium-dependent serotonin transporter (P31645 whole entry): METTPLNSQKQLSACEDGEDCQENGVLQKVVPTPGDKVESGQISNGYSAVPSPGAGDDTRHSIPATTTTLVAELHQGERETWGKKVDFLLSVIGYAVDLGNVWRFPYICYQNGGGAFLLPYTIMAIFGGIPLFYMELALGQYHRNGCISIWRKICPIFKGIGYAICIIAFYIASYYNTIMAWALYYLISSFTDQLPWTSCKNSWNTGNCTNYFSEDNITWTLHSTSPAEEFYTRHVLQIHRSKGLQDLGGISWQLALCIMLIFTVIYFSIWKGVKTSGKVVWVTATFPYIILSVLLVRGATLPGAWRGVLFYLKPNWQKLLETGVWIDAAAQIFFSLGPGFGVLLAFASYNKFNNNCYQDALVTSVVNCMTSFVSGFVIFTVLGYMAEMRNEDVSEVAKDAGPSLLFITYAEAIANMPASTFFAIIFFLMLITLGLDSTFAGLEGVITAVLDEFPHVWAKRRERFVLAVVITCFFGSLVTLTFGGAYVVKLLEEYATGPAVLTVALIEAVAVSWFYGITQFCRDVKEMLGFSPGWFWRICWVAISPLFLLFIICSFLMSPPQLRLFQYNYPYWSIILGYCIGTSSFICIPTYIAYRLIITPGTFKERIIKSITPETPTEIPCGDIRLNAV
Sequence of D(3) dopamine receptor (P35462 whole entry): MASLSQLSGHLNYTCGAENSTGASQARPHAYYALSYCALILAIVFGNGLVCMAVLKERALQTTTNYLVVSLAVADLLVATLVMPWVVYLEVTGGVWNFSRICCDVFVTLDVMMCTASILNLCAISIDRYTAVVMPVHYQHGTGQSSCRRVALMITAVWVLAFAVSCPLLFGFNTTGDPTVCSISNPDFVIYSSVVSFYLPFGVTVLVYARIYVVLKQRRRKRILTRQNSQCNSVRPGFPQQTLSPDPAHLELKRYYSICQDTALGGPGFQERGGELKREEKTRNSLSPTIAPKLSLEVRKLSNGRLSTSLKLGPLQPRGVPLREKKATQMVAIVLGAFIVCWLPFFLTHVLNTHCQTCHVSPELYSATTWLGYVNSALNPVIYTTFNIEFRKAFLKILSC
Sequence of 5-hydroxytryptamine receptor 7 (P34969 whole entry): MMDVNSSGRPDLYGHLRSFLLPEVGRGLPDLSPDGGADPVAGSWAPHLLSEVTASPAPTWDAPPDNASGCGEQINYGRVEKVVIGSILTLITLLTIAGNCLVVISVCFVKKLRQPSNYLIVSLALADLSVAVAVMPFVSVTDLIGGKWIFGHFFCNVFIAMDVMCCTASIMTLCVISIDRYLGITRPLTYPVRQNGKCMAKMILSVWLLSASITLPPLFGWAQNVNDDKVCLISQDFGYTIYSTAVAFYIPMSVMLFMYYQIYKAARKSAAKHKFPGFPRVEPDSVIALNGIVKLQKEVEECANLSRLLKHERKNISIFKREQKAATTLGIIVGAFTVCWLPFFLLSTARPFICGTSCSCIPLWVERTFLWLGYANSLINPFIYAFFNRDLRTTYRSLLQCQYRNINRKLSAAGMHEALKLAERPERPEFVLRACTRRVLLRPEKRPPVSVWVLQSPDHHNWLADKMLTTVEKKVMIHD
Sequence of 5-hydroxytryptamine receptor 6 (P50406 whole entry): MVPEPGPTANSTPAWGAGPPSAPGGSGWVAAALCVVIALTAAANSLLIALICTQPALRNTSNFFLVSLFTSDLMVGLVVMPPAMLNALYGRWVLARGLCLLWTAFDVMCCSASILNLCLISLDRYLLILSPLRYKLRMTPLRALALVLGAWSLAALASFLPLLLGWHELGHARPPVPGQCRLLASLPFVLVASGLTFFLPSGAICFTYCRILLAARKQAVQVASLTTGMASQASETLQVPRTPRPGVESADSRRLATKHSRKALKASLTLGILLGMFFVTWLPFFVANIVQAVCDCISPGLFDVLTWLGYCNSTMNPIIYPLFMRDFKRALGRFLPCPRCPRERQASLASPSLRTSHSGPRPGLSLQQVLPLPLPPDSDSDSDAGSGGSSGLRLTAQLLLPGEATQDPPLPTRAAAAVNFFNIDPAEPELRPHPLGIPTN
Sequence of 5-hydroxytryptamine receptor 1B (P28222 whole entry): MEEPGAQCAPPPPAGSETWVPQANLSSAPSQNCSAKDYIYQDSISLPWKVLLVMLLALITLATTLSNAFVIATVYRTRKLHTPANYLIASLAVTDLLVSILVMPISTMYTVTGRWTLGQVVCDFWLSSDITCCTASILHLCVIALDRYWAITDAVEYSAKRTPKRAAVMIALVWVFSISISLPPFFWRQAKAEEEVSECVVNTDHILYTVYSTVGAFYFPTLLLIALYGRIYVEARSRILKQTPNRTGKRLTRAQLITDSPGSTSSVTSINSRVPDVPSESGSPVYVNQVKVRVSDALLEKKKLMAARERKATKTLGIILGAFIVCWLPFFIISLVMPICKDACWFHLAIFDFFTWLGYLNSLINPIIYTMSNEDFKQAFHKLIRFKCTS
Sequence of Sigma non-opioid intracellular receptor 1 (Q99720 whole entry): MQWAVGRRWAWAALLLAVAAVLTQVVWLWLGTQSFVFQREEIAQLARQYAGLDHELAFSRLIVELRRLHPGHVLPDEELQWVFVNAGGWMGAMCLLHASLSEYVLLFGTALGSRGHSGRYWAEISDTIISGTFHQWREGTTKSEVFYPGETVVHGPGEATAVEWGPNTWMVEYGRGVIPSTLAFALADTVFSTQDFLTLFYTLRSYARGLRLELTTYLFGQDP
Sequence of 5-hydroxytryptamine receptor 1D (P28221 whole entry): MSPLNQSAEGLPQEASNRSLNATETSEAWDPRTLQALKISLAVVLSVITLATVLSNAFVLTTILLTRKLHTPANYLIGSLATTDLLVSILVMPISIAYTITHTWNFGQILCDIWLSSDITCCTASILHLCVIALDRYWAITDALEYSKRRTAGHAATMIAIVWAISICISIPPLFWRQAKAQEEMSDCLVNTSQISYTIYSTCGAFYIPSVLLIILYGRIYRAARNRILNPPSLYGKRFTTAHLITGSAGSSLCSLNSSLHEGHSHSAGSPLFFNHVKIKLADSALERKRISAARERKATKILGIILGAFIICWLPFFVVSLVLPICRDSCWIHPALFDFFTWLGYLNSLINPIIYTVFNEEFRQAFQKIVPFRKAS
Sequence of Kappa-type opioid receptor (P41145 whole entry): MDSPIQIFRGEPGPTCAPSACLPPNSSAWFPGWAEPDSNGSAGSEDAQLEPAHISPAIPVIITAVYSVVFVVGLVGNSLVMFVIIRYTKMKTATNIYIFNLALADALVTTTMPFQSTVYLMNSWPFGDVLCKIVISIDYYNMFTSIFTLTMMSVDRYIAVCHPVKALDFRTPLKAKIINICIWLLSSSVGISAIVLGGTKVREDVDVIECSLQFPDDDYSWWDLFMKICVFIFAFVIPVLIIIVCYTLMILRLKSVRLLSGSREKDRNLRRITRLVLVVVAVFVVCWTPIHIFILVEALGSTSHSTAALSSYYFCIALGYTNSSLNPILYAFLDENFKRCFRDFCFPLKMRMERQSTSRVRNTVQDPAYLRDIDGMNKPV
Sequence of Mu-type opioid receptor (P35372 whole entry): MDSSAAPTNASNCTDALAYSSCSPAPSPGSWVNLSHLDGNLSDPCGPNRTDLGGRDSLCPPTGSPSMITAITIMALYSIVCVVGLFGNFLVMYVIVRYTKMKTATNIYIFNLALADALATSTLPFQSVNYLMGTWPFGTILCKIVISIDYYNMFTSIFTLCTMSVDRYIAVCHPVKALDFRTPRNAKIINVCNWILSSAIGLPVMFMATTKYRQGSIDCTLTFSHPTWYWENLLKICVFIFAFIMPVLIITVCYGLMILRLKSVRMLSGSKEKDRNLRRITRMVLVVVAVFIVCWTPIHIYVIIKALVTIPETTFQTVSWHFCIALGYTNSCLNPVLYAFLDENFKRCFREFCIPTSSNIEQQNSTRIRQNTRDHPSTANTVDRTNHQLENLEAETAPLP
Sequence of 5-hydroxytryptamine receptor 5A (P47898 whole entry): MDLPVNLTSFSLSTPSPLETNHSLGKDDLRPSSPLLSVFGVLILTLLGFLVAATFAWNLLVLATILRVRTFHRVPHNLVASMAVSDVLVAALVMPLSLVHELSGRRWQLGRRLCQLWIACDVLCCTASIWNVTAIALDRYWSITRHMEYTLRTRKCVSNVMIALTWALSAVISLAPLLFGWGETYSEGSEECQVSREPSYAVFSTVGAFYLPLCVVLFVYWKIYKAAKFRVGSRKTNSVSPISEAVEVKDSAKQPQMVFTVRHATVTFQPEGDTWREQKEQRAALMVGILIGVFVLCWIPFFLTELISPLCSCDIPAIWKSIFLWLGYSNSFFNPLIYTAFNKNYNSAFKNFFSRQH

| Ki [1] [µM] | Ki [2] [µM] | Ki (D(3) dopamine receptor) [µM] | Structure (SMILES) | Ki [3] [µM] | Ki [6] [µM] | other results |
| --- | --- | --- | --- | --- | --- | --- |
| 7.77 | 6.91 | 2.58 | CCCCCNC(=O)NS(=O)(=O)c1cc([N+](=O)[O-])ccc1NC1CCCCC1 |  |  |  |
| 7.61 | 7.55 | 2.04 | N[C@H](C(=O)O)c1ccc(C(=O)O)c(C(=O)O)c1 |  |  |  |
|  |  | 0.559 | COc1ccc(S(=O)(=O)c2cc(OC)ccc2S(=O)(=O)c2ccc([C@H](C)NS(C)(=O)=O)cc2)cc1 |  |  | Ki [5]: 0.28 µM; Ki (D(4) dopamine receptor): 1.16 µM |
| 2.43 | > 10 |  | O=C(O)c1n[nH]c2c1C[C@H]1C[C@@H]21 |  |  | Ki [15]: > 10 µM |

Further lines, the molecule ahead of its results:

| Structure (SMILES) | Ki [1] [µM] | Ki [2] [µM] | Ki (D(3) dopamine receptor) [µM] | Ki [3] [µM] | Ki [6] [µM] | other results |
| --- | --- | --- | --- | --- | --- | --- |
| CCCNS(=O)(=O)Nc1ncnc(OCCOc2ncc(Br)cn2)c1-c1ccc(Br)cc1 | > 10 | 4.83 | 1 |  |  | Ki (Translocator protein): 2.12 µM |
| CCCn1c(=O)c2[nH]c(-c3cnn(Cc4cccc(C(F)(F)F)c4)c3)nc2n(CC)c1=O [GS 6201] |  |  |  | > 10 |  |  |
| CC(C)NCC(O)COc1cccc2ccccc12 (stereo unspecified) [PROPRANOLOL HYDROCHLORIDE] |  |  |  |  | 0.353 | Ki [4]: 0.0954 µM; Ki [5]: 0.542 µM |
| Brc1c(NC2=NCCN2)ccc2nccnc12 |  |  |  | 2.11 | 1.53 | Ki [7]: 1.11 µM; Ki [8]: 4.2 µM |
| C[C@H](CO)Nc1nc(SCc2cccc(Cl)c2F)nc2[nH]c(=O)sc12 |  | > 10 |  |  |  | Ki [9]: 8.41 µM |
| Clc1cccc(Cl)c1N=C1NCCN1 [CLONIDINE HYDROCHLORIDE] |  |  |  | 1.98 | 2.78 | Ki [7]: 0.879 µM; Ki [8]: 2.63 µM; Ki [10]: 6.95 µM |
| CCCCCCCCCCCCCCCCOC[C@H](COP(=O)([O-])OCC[N+](C)(C)C)OC(C)=O |  |  | 1.76 | 2.05 | 1.82 | Ki [11]: > 10 µM; Ki [12]: > 10 µM; Ki [8]: 4.49 µM; Ki [13]: 8.52 µM; Ki [10]: 3.08 µM |
| N#Cc1c(N)nc(SCC(N)=O)c(C#N)c1-c1ccc(OCC2CC2)cc1 |  |  |  |  |  | Ki [4]: 1 µM; Ki [9]: 6.67 µM; Ki [14]: 0.407 µM |
| Cc1ccccc1C(=O)Nc1ccc(C(=O)N2CCCC(O)c3cc(Cl)ccc32)c(C)c1 (stereo unspecified) [TOLVAPTAN] |  |  |  |  | 1.03 | Ki (Mu-type opioid receptor): 0.41 µM; Ki [10]: 4.86 µM; Ki (Histamine H1 receptor): 6.69 µM |
